Data published in ChEMBL document CHEMBL5537172 (J Med Chem, 2024).
Calls of active or inactive are those of the source. The rule behind the calls is not given here.

Key:
[1] = biological target: T1, Receptor-type tyrosine-protein kinase FLT3 (Homo sapiens, UniProt P36888); experiment: Inhibition of FLT3 (unknown origin); type: toxicity
T1 sequence (P36888 whole entry): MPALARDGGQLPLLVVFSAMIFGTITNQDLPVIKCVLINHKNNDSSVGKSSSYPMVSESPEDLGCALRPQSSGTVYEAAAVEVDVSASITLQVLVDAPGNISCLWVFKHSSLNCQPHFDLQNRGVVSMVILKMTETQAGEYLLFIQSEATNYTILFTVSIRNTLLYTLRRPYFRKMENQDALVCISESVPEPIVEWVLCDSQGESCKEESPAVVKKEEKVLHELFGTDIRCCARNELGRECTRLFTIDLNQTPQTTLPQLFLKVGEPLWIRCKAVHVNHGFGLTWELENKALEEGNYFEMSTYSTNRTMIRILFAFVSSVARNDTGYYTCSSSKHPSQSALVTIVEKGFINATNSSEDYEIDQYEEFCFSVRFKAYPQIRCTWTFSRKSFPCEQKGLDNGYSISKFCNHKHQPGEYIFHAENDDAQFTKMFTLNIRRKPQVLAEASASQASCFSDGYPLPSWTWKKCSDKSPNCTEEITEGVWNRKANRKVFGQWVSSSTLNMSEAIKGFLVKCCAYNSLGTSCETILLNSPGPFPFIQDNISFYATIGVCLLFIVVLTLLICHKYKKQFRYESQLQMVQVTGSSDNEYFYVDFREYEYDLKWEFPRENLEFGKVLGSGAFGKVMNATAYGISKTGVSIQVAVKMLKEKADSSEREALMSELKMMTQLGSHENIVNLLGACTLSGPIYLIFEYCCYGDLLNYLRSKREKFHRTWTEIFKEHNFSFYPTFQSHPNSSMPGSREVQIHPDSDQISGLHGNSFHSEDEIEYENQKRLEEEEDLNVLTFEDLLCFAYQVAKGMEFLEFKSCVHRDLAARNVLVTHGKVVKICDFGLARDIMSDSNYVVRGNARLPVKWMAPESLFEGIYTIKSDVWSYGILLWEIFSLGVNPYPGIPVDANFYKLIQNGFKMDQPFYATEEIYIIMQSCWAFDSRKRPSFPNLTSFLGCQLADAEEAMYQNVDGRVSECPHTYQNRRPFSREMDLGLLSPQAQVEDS

[2] = biological target: Protein kinase C alpha type (Homo sapiens, UniProt P17252); experiment: Inhibition of PKCalpha (unknown origin) incubated for 15 mins in presence of 33P-ATP by Topcount scintillation counting method
[3] = biological target: Glycogen synthase kinase-3 beta (Homo sapiens, UniProt P49841); experiment: Inhibition of GSK3beta (unknown origin); type: toxicity
[4] = biological target: T2, Protein kinase C theta type (Homo sapiens, UniProt Q04759); experiment: Inhibition of PKCtheta (unknown origin) incubated for 15 mins in presence of 33P-ATP by Topcount scintillation counting method
cells = conditions: Homo sapiens, 92-1, 72 h
[5] = Dissociation constant, pKa of compound; type: physicochemical
[6] = biological target: 5-hydroxytryptamine receptor 2B (Homo sapiens, UniProt P41595); experiment: Agonist activity at 5HT2B (unknown origin); type: toxicity
SK-MEL-28 = experiment: cells; conditions: Homo sapiens
[7] = biological target: T2, Protein kinase C theta type; experiment: Inhibition of PKCtheta (unknown origin)
[8] = biological target: Protein kinase C delta type (Homo sapiens, UniProt Q05655); experiment: Inhibition of PKCdelta (unknown origin)
[9] = biological target: Protein kinase C eta type (Homo sapiens, UniProt P24723); experiment: Inhibition of PKCeta (unknown origin)
[10] = biological target: T3, Protein kinase C epsilon type (Homo sapiens, UniProt Q02156); experiment: Inhibition of PKCepsilon (unknown origin)
T3 sequence (Q02156 whole entry): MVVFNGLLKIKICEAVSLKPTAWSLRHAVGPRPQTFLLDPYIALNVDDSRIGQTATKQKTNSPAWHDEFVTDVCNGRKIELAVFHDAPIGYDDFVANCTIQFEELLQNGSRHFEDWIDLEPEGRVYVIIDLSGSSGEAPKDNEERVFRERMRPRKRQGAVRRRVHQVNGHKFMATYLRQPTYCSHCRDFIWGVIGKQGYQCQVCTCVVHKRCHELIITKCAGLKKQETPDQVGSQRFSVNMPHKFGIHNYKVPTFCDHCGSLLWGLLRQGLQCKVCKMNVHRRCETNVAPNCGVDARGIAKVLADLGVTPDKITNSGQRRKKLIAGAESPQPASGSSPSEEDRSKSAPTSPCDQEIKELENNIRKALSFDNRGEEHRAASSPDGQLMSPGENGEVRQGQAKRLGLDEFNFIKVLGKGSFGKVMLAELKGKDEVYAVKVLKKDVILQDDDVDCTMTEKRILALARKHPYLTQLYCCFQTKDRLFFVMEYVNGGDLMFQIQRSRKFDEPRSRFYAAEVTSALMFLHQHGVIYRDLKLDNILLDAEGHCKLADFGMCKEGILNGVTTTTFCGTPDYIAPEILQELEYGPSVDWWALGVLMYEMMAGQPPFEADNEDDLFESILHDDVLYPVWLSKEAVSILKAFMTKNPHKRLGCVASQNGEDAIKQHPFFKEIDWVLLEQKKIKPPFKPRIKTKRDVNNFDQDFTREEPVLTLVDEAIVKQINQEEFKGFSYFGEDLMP

[11] = biological target: Protein kinase C gamma type (Homo sapiens, UniProt P05129); experiment: Inhibition of PKCgamma (unknown origin)
92-1 [12] = experiment: Antitumor activity against human 92-1 cells xenografted in mouse assessed as tumor suppression at 120 mg/kg, bid; type: functional, organism-based
[13] = Toxicity in mouse xenografted with human 92-1 cells assessed as enlarged GI track at 100 mg/kg, qd measured upto 15 days; type: organism-based; conditions: in vivo, 360 h, time < 15 day
[14] = Toxicity in mouse xenografted with human 92-1 cells assessed as body weight loss at 100 mg/kg, qd measured upto 15 days; type: organism-based; conditions: in vivo, 360 h, time < 15 day
[15] = Toxicity in mouse xenografted with human 92-1 cells assessed as abdominal distention at 100 mg/kg, qd after 1 week; type: organism-based; conditions: in vivo, 168 h, time 1 weeks
92-1 [16] = experiment: Antitumor activity against human 92-1 cells xenografted in mouse assessed as tumor suppression at 100 mg/kg, qd; type: functional, organism-based

T2 sequence (Q04759 whole entry): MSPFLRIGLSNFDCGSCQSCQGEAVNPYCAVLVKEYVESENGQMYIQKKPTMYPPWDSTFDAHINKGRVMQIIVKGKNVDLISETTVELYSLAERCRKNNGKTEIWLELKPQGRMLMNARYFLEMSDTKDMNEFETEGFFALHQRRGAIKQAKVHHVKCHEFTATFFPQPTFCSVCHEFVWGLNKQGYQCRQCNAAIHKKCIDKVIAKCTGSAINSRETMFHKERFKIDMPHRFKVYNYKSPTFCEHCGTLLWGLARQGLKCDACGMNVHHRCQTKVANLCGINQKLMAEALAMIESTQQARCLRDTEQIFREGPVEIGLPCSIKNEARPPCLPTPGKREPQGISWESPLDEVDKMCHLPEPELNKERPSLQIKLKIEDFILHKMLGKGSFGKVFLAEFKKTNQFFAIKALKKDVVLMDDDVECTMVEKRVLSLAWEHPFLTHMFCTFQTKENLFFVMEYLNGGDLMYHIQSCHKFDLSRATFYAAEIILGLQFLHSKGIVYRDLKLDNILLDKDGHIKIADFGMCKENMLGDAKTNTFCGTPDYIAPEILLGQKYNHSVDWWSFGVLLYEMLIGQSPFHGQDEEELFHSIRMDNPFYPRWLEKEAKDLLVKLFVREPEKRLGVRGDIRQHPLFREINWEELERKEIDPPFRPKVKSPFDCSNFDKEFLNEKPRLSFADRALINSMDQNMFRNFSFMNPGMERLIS
5-hydroxytryptamine receptor 2B, sequence (P41595 whole entry): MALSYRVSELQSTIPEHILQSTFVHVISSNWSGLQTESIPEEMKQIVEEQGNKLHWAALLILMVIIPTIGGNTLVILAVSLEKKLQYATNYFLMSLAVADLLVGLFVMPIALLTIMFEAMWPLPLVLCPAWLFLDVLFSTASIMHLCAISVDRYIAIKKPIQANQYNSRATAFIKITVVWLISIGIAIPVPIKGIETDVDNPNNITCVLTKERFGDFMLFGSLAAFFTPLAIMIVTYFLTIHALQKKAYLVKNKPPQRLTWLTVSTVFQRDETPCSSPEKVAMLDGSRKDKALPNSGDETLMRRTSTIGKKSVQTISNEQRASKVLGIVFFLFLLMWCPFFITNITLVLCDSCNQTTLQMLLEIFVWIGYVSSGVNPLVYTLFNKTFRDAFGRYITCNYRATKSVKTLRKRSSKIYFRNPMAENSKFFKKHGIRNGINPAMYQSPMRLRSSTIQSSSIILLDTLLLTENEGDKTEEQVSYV
Glycogen synthase kinase-3 beta, sequence (P49841 whole entry): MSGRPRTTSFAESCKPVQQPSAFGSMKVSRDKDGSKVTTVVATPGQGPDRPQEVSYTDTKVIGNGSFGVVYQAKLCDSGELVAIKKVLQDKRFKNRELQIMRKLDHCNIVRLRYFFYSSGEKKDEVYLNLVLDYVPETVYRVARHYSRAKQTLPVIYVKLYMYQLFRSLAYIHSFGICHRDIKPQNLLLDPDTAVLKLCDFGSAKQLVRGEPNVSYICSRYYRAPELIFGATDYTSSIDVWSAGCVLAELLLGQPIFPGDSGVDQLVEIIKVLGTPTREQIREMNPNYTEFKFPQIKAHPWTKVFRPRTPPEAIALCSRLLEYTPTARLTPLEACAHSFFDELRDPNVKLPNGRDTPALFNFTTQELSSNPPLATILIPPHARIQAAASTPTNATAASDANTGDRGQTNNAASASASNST
Protein kinase C eta type, sequence (P24723 whole entry): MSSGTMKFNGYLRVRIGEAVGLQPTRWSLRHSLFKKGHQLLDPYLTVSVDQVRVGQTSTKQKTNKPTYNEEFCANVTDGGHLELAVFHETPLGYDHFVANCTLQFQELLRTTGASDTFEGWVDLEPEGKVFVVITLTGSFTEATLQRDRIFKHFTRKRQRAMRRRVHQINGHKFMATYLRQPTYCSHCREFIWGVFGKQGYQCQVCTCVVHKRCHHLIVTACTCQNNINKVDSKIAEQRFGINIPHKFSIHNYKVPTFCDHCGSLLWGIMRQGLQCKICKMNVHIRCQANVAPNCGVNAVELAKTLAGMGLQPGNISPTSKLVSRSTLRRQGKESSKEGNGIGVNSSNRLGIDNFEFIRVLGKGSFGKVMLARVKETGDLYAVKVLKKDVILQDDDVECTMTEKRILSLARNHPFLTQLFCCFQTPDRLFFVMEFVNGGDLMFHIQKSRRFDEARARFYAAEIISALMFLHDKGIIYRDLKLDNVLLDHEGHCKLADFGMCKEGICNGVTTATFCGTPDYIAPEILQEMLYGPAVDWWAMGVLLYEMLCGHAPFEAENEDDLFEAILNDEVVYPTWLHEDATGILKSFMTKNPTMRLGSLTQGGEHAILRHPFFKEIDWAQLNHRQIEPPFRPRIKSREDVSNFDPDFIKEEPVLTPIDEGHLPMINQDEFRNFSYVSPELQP
Protein kinase C delta type, sequence (Q05655 whole entry): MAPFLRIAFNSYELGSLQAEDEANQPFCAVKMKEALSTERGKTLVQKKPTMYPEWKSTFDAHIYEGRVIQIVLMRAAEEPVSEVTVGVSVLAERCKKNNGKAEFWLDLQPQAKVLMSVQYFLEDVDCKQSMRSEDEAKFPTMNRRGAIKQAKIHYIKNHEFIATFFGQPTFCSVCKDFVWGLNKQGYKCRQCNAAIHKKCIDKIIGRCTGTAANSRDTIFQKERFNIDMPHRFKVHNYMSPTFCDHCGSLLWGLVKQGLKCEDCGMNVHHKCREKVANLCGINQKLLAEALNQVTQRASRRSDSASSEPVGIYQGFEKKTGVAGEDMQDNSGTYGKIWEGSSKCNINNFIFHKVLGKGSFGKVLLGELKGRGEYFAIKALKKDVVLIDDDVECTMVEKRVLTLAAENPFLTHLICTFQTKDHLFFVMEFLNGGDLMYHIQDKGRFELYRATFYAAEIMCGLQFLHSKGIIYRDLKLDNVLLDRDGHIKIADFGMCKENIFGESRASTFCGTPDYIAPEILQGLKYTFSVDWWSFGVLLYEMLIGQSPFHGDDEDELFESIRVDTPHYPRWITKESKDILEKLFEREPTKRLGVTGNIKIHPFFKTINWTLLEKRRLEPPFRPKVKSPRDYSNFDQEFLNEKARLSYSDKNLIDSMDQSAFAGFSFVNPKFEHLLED

| IC50 [4] [nM] | EC50 (cells) [nM] | Structure (SMILES) | IC50 [1] [nM] | IC50 [3] [nM] | EC50 [6] [nM] | further results |
| --- | --- | --- | --- | --- | --- | --- |
| 1.3 | 230 | Nc1ncc(-c2ncccc2OC(F)(F)F)nc1C(=O)Nc1ccncc1N1CCC(N)CC1 | 30 | 530 | – | IC50 [2]: 0.4 nM |
| 2 | – | CO[C@H]1CN(c2ccncc2NC(=O)c2nc(-c3ncccc3OC(F)(F)F)cnc2N)CC[C@@H]1N | – | – | – | IC50 [2]: 0.2 nM; IC50 (cells): 140 nM |
| 3 | 1390 | Nc1ncc(-c2ncccc2C(F)(F)F)nc1C(=O)Nc1ncccc1N1C[C@H]2CC[C@@H](C1)[C@@H]2N | – | – | > 30000 | IC50 [2]: 10 nM; pKa [5]: 9.4 |
| – | – | Nc1ncc(-c2ncccc2C(F)(F)F)nc1C(=O)Nc1ncccc1N1CCC(N)CC1 | 8700 | – | 160 | – |
| – | – | Nc1ncc(-c2nc(N3CCOCC3)ccc2C(F)(F)F)nc1C(=O)Nc1ncccc1N1CCC(N)CC1 | 230 | – | 150 | – |
| – | 66 | CN(C)c1ccc(C(F)(F)F)c(-c2cnc(N)c(C(=O)Nc3ncccc3N3CCC(N)CC3)n2)n1 | 95 | 2700 | – | – |
| – | 22 | Nc1ncc(-c2nc(N3CCOCC3)cc3ccccc23)nc1C(=O)Nc1ncccc1N1CCC(N)CC1 | – | – | 160 | – |
| – | – | Nc1ncc(-c2ncnc3sccc23)nc1C(=O)Nc1ncccc1N1CCC(N)CC1 | 4100 | 710 | – | – |
| 0.3 | – | CN1CCN(c2nc(C3=C(c4c[nH]c5ccccc45)C(=O)NC3=O)c3ccccc3n2)CC1 [SOTRASTAURIN] | – | – | – | IC50 (SK-MEL-28): > 10000 nM; IC50 [7]: 2.1 nM; IC50 [8]: 6 nM; IC50 [9]: 5.9 nM; IC50 [10]: 5.4 nM; IC50 [11]: 64 nM; Activity (92-1 [12]): Active; IC50 (cells): 250 nM |
| 10 | 1740 | Nc1ncc(-c2ncccc2OC(F)(F)F)nc1C(=O)Nc1ncccc1N1CCC(N)C(F)(F)C1 (stereo not drawn) | – | – | 2000 | IC50 [2]: 11 nM; pKa [5]: 6 |
| – | 2800 | COC1CN(c2cccnc2NC(=O)c2nc(-c3ncccc3OC(F)(F)F)cnc2N)CCC1N (trans isomer) | – | – | > 30000 | pKa [5]: 8 |
| – | – | Nc1ncc(-c2nc(N3CCC3)ccc2C(F)(F)F)nc1C(=O)Nc1ncccc1N1CCC(N)CC1 | 140 | 2900 | – | – |
| – | – | CNc1ncc(-c2ncccc2OC(F)(F)F)nc1C(=O)Nc1cnccc1N1CCC(N)CC1 | – | – | – | Activity [13]: Non-Toxic; Activity [14]: Non-Toxic; Activity [15]: Non-Toxic; IC50 (cells): 3700 nM |
| – | 11 | Nc1ncc(-c2cccc3[nH]ccc23)nc1C(=O)Nc1ncccc1N1CCC(N)CC1 | 33 | 19 | 780 | – |
| – | 180 | Nc1ncc(-c2ncccc2OC(F)(F)F)nc1C(=O)Nc1ncccc1N1CCC(N)CC1 | 8460 | – | 200 | pKa [5]: 8.9 |
| – | 153 | Nc1ncc(-c2ncccc2OC(F)(F)F)nc1C(=O)Nc1ncccc1N1CCC(N)C(F)C1 (stereo not drawn) | – | – | 43 | pKa [5]: 7.6 |
| 69 | 3660 | Nc1ncc(-c2ncccc2C(F)(F)F)nc1C(=O)Nc1cccnc1N1CCC(N)CC1 | 3000 | 6900 | – | IC50 [2]: 43 nM |
| – | – | Nc1ncc(-c2ncccc2F)nc1C(=O)Nc1ncccc1N1CCC(N)CC1 | – | – | 41 | – |
| – | – | Nc1ncc(-c2cccc3[nH]ncc23)nc1C(=O)Nc1ncccc1N1CCC(N)CC1 | 31 | 41 | – | – |
| – | 36 | Nc1ncc(-c2ncccc2OC(F)(F)F)nc1C(=O)Nc1cnccc1N1CCC(N)CC1 | 230 | 10 | – | Activity [13]: Toxic; Activity [14]: Toxic; Activity [15]: Toxic; Activity (92-1 [16]): Active |
